Patent US20240065261A1, “PENETRATING CRYOPROTECTION AGENTS AND METHODS OF MAKING AND USING SAME” (The Research Foundation for The State University of New York, priority 2020, published 2024)
Several values for one entry are separate records, joined by “and”; a condition that tells them apart may be missing. Equal entries are not always repeated.

Columns and labels:
3T3 cells = assay: Cryopreservation, post-thaw recovery rate, Example 3; type: cell-based; conditions: incubated with medium only; frozen −80° C. in medium with 5% DMSO
Protocol: Cryopreservation: The cryopreservation effects of EGL-3Pro and EGL-3Phe were tested on 3T3 cells. The cells were incubated with 5 mM or 10 mM EGL-3Pro or 0.5 mM EGL-3Phe or medium only (two control groups) for 72 hours. After incubation, the cells were detached by treating […] pelleted by centrifuging (200×g). The cells were then resuspended in medium with 400 mM trehalose or 5% DMSO (for control 2 group) in cryovials and a small portion of cell suspension were used for counting pre-freeze cell number. The vials were directly put in −80° C. freezer and stored for at least 3 days. The cells were thawed in 37° C. water bath until ice melt, and resuspended in 10 mL fresh medium and pelleted by centrifuging (200×g). The cells were then resuspended in 1 mL fresh medium and counted by cell counter. The recovery rate was obtained by dividing post-thaw lived cell number by pre-freeze lived cell number.

NIH-3T3 cells [1] = assay: Post-thaw viability of cryopreserved NIH-3T3 cells (CCK-8), Example 1; type: cell-based; conditions: for Post-thaw viability, 24 hours post thaw / Post-thaw viability, 48 hours post-thaw: Table 1
Protocol: Cryopreservation protocol. […] Discarded 95% of the old media and added 0.5 mL new DMEM (pH=7.4) with 10% FBS and 400 mM trehalose (filtered with 0.22 μm filter) and re-suspended the cells. • Transferred the cell culture to cryo-tube and stored the tubes at −80° C. for 3 days. • Thawed the cells at 37° C. in a water bath until ice melted. • Counted the cell density in each cryo-tube with cell counter. • Re-cultured the cells in 96-well plate with fresh DMEM (PH=7.4) with 10% FBS. (while keeping cell density the approximately the same for each well). • Used CCK-8 kit to test the post-thaw viability after certain time.

NIH-3T3 cells [2] = assay: Post-thaw total cell recovery of cryopreserved cells (trypan blue exclusion); type: cell-based; conditions: ±SEM
Protocol: The delivery of sugar alcohols into cells makes it possible to turn these molecules into intracellular CPAs. […] Total post-thaw cell recovery, defined as the ratio (%) of post-thaw live cells to the number of initially frozen live cells, which provides a more accurate measure of cryoprotective outcome than cell viability, was used to assess the cryoprotective effects of the diesters.
Systematic studies were then performed by incubating the cells (1) with each of diesters 1-4 (10 mM), (2) with unmodified sorbitol, mannitol, xylitol, or erythritol (10 mM), and (3) in medium without any of the diesters or sugar alcohols, at 37° C. for 48 h. The cells treated with diesters 1-4 and the four sugar alcohols were then transferred to freezing media consisting of DMEM, 10% FBS and 400 mM trehalose. The cells incubated with only the medium were divided into two portions, one being directly transferred to the freezing medium containing 400 mM trehalose (control 1) and the other being placed in a different freezing medium consisting of DMEM, 10% FBS and 5% DMSO but without trehalose (control 2). After being frozen at −80° C. for 72 h, the cells were thawed in a warm water bath at 37° C. until ice melted. The post-thaw cells were either immediately analyzed for their survival or were cultured in growth media (DMEM with 10% FBS) for 24 h and 48 h before being analyzed.
Incubation (for cryopreservation). NIH/3T3 cells were seeded into cell culture treated plates (100 mm) at a density of 2×10^4 cells/mL (10 mL/plate), allowed to adhere overnight and then incubated with different sample solutions (10 mL) for 48 hours at 37° C. under 5% CO2. Control cells were incubated with growth medium.
Cryopreservation. At the end of the incubation, the cells were rinsed with PBS (2 mL) and detached using 0.25% trypsin-EDTA (3 mL). The cells were pelleted (200×g, 5 min) and resuspended in growth medium with 400 mM trehalose except for the control-2 group. For control-2 group, cells were resuspended in growth medium with 5% DMSO (v/v). An aliquot of cells of each group was then removed for counting by a DeNovix Celldrop cell counter to obtain prefreeze number of viable cells. The remaining cell suspension was transferred into a 2 mL cryogenic vial. The vials were directly transferred to −80° C. freezer without controlling cooling rate and stored at −80° C. freezer for 3 days. To thaw, cryogenic vials were removed from −80° C. freezer and suspended in a 37° C. water bath until ice melt. To the contents of each vial 1 mL growth medium was added and centrifuged (200×g , 5 min). The supernatant was discarded and cell pellet was resuspended in 1 mL growth cell medium. An aliquot of cell suspension of each group was then removed for counting with a DeNovix Celldrop cell counter to obtain the number of viable cells at 0-hr post-thaw. The remaining cell suspension was split equally and resuspended into two cell culture treated plates (100 mm) with 10 mL growth medium in each plate. The plates were then maintained for either 24 hours or 48 hours at 37° C. under 5% CO2. After being cultured for either 24 hours or 48 hours, the cells were rinsed with PBS (2 mL) and detached using 0.25% trypsin-EDTA (3 mL). The cells were pelleted (200×g, 5 min) and resuspended in growth medium. The cell suspension was then analyzed by DeNovix Celldrop cell counter to obtain number of viable cells at either 24-hr or 48-hr post-thaw.
Trypan Blue Exclusion Assay. For all time points, a sample of cells was mixed 1:1 in 0.4% trypan blue and counted using a DeNovix Celldrop. Cell recovery was calculated as the ratio of viable cells to the number of cells initially frozen.

NIH-3T3 cells [3] = assay: Live/dead fluorescence microscopy of post-thaw cells (calcein-AM / ethidium homodimer-1); type: cell-based; conditions: 24 h post-thaw; incubated with 10 mM for 48 h, frozen in media with 400 mM trehalose (FIG. 14)
Protocol: DIC and Fluorescence images capturing. NIH/3T3 cells were treated as the same as for cryopreservation experiment and were thawed in a 37° C. water bath until ice melt. Cells in each vial were then pelleted (200×g, 5 min), re-suspended in 1 mL fresh growth medium and plated into 96 well plate and grown for 24 hours. Each well was washed with sterile PBS (100 μL). Sterile PBS (200 μL) containing 2 μM calcein-AM and 4 μM ethidium homodimer-1 (EthD-1) was then added to each well. The 96-well plate was then incubated in a CO2 incubator at 37° C. for 30 min. Fresh cells without freezing were plated at similar density in 96-well plate as comparison. DIC and fluorescence microscopy images were captured at 509 and 580 nm on Axioplan 2 fluorescent microscope (Zeiss [Carl Zeiss], Thornwood, NY) with an Axiocam MRm camera (Zeiss). Axiovision 4 software (Zeiss) was used for image acquisition. Digital images were processed with ImageJ (imagej.nih.gov/ij/).

NIH-3T3 cells [4] = assay: Cytotoxicity, CCK-8 cell viability after 48 h incubation
Protocol: Cytotoxicity assays were performed by exposing NIH-3T3 cells to the diesters. Cell viability was determined by using Cell Counting Kit-8 (CCK-8) reagent and a BioTek microplate reader to count the numbers of live and dead cells.
NIH/3T3 cells were seeded into 96-well plates (Fisher brand) at a density of 8,000 cells in 150 μL growth medium per well. The cells were incubated for 24 hours at 37° C. with 5% CO2. After 24 hours all medium was aspired one row at a time and treated with various concentrations of each compound (10 mM, 5 mM, 1 mM, 0.5 mM and 0.1 mM) or carboxylic acid/NaOH (10 mM/5 mM, 5 mM/2.5 mM). The control cells were treated with fresh medium only. The cells were then incubated again for 48 hours at 37° C. with 5% CO2. After incubation, all medium was aspired and replaced with fresh medium and 10% (v/v) CCK-8 reagent and returned to incubate at 37° C. with 5% CO2 for 2 hours. Cell viability was then calculated from the OD value read by a plate reader (Biotek Synergy H1) at wavelength of 450 nm.

[5] = incubated with 10% DMSO, reference set as 100%
[6] = Table 2, incubated with 10% DMSO, reference set as 100%
[7] = Table 3, incubated with 10% DMSO, reference set as 100%
[8] = incubated with media only, frozen in media containing 5% DMSO without trehalose
[9] = incubated with 10 mM for 48 h, frozen −80° C. 72 h in media with 400 mM trehalose
[10] = incubated at 5 mM without DMSO, frozen −80° C. 72 hours, freezing media with 400 mM trehalose, 10% DMSO set as 100%
[11] = incubated at 10 mM without DMSO, frozen −80° C. 72 hours, freezing media with 400 mM trehalose, 10% DMSO set as 100%
[12] = Table 2, incubated 36 hours at 5 mM without DMSO, frozen −80° C. 72 hours, 400 mM trehalose, 10% DMSO set as 100%
[13] = Table 2, incubated 36 hours at 10 mM without DMSO, frozen −80° C. 72 hours, 400 mM trehalose, 10% DMSO set as 100%
[14] = Table 3, incubated 36 hours at 5 mM without DMSO, frozen −80° C. 72 hours, 400 mM trehalose, 10% DMSO set as 100%
[15] = Table 3, incubated 36 hours at 10 mM without DMSO, frozen −80° C. 72 hours, 400 mM trehalose, 10% DMSO set as 100%

C[S+](C)[O-] [DMSO, dimethyl sulfoxide, reference compound]
0-hour post thaw recovery (%) (3T3 cells): 77.9 ± 3.8% | Post-thaw viability, 24 hours post thaw (NIH-3T3 cells [1]; [5]): 100.0 ± 11.8% | Post-thaw viability, 48 hours post-thaw (NIH-3T3 cells [1]; [5]): 100.0 ± 4.0% | Post-thaw viability (%), 24 hours post thaw (NIH-3T3 cells [1]; [6]): 100.0 ± 3.6% | Post-thaw viability (%), 48 hours post-thaw (NIH-3T3 cells [1]; [6]): 100.0 ± 13.4% | Post-thaw viability (%), 24 hours post thaw (NIH-3T3 cells [1]; [7]): 100.0 ± 13.5% | Post-thaw viability (%), 48 hours post-thaw (NIH-3T3 cells [1]; [7]): 100.0 ± 5.3% | Post-thaw recovery (%) 0-hr (NIH-3T3 cells [2]; [8]): 84.5 ± 3.8% | Post-thaw recovery (%) 24-hr (NIH-3T3 cells [2]; [8]): 93.9 ± 2.4% | Post-thaw recovery (%) 48-hr (NIH-3T3 cells [2]; [8]): 196.4 ± 5.7%

CCC(=O)OC[C@@H](O)[C@@H](O)COC(=O)CC [EryPr2]
Post-thaw recovery (%) 0-hr (NIH-3T3 cells [2]; [9]): 48% and 47.9 ± 3.4% | Post-thaw recovery (%) 24-hr (NIH-3T3 cells [2]; [9]): 42.6 ± 2.6% | Post-thaw recovery (%) 48-hr (NIH-3T3 cells [2]; [9]): 72% and 71.6 ± 3.9%

OC[C@@H](O)[C@@H](O)CO [Erythritol, erythritol, reference compound]
Post-thaw recovery (%) 0-hr (NIH-3T3 cells [2]; [9]): 33.5 ± 2.7% | Post-thaw recovery (%) 24-hr (NIH-3T3 cells [2]; [9]): 26.0 ± 0.6% | Post-thaw recovery (%) 48-hr (NIH-3T3 cells [2]; [9]): 42.3 ± 1.2%

O=C(OCC(COC(=O)[C@@H]1CCCN1)OC(=O)[C@@H]1CCCN1)[C@@H]1CCCN1 [GLC3P]
Post-thaw viability, 24 hours post thaw (NIH-3T3 cells [1]; [10]): 130.9 ± 5.3% | Post-thaw viability, 48 hours post-thaw (NIH-3T3 cells [1]; [10]): 143.8 ± 4.2% | Post-thaw viability, 24 hours post thaw (NIH-3T3 cells [1]; [11]): 174.7 ± 6.9% | Post-thaw viability, 48 hours post-thaw (NIH-3T3 cells [1]; [11]): 220.4 ± 5.5%

OC[C@@H](O)[C@@H](O)[C@H](O)[C@H](O)CO [Mannitol, mannitol, reference compound]
Post-thaw viability/recovery in fluorescence microscopy images (NIH-3T3 cells [3]): does not result in higher post-thaw viability than cells treated with media only | Post-thaw recovery (%) 0-hr (NIH-3T3 cells [2]; [9]): 24.1 ± 1.8% | Post-thaw recovery (%) 24-hr (NIH-3T3 cells [2]; [9]): 20.8 ± 1.5% | Post-thaw recovery (%) 48-hr (NIH-3T3 cells [2]; [9]): 41.5 ± 3.0%

O=C(OC[C@H](OC(=O)[C@@H]1CCCN1)[C@@H](OC(=O)[C@@H]1CCCN1)[C@H](OC(=O)[C@@H]1CCCN1)[C@@H](COC(=O)[C@@H]1CCCN1)OC(=O)[C@@H]1CCCN1)[C@@H]1CCCN1 [SBT6P]
Post-thaw viability (%), 24 hours post thaw (NIH-3T3 cells [1]; [12]): 33.3 ± 1.4% | Post-thaw viability (%), 48 hours post-thaw (NIH-3T3 cells [1]; [12]): 66.2 ± 2.0% | Post-thaw viability (%), 24 hours post thaw (NIH-3T3 cells [1]; [13]): 34.0 ± 3.5% | Post-thaw viability (%), 48 hours post-thaw (NIH-3T3 cells [1]; [13]): 69.6 ± 6.5%

CCCC(=O)OC[C@@H](O)[C@@H](O)[C@H](O)[C@@H](O)COC(=O)CCC [SorbBa2]
Post-thaw viability (%), 24 hours post thaw (NIH-3T3 cells [1]; [14]): 113.4 ± 9.5% | Post-thaw viability (%), 48 hours post-thaw (NIH-3T3 cells [1]; [14]): 143.3 ± 7.4% | Post-thaw viability (%), 24 hours post thaw (NIH-3T3 cells [1]; [15]): 150.4 ± 1.5% | Post-thaw viability (%), 48 hours post-thaw (NIH-3T3 cells [1]; [15]): 211.8 ± 2.2%

OC[C@@H](O)[C@@H](O)[C@H](O)[C@@H](O)CO [Sorbitol, sorbitol, reference compound]
Post-thaw viability/recovery in fluorescence microscopy images (NIH-3T3 cells [3]): does not result in higher post-thaw viability than cells treated with media only | Post-thaw recovery (%) 0-hr (NIH-3T3 cells [2]; [9]): 32.8 ± 3.2% | Post-thaw recovery (%) 24-hr (NIH-3T3 cells [2]; [9]): 28.4 ± 2.1% | Post-thaw recovery (%) 48-hr (NIH-3T3 cells [2]; [9]): 50.8 ± 3.5%

CCC(=O)OC[C@@H](O)[C@H](O)[C@@H](O)COC(=O)CC [XylPr2]
Post-thaw recovery (%) 0-hr (NIH-3T3 cells [2]; [9]): 52.1 ± 4.8% | Post-thaw recovery (%) 24-hr (NIH-3T3 cells [2]; [9]): 49.7 ± 1.1% | Post-thaw recovery (%) 48-hr (NIH-3T3 cells [2]; [9]): 90.0 ± 4.3%

OC[C@@H](O)[C@H](O)[C@@H](O)CO [Xylitol, xylitol, reference compound]
Post-thaw recovery (%) 0-hr (NIH-3T3 cells [2]; [9]): 24.6 ± 2.4% | Post-thaw recovery (%) 24-hr (NIH-3T3 cells [2]; [9]): 22.1 ± 2.1% | Post-thaw recovery (%) 48-hr (NIH-3T3 cells [2]; [9]): 44.3 ± 4.7%

CCCC(=O)O [butyric acid]
Cell viability relative to control groups (NIH-3T3 cells [4]; at 5 mM): ~50% | Cell viability relative to control groups (NIH-3T3 cells [4]; at 10 mM): ~40%

CCC(=O)O [propionic acid]
Cell viability relative to control groups (NIH-3T3 cells [4]; up to 10 mM): ~70%
